“Also recorded” adds a separate entry of the source. Where two headings read alike, the source gives them in different places.
Assays:
[1] = biological target: ENL(YEATS)-HiBiT (Homo sapiens, UniProt Q03111); assay: ENL; type: cell-based
[2] = biological target: T1, ENL YEATS domain (Homo sapiens, UniProt Q03111); assay: ENL-H3K27cr HTRF
T1 sequence (Q03111 1-148): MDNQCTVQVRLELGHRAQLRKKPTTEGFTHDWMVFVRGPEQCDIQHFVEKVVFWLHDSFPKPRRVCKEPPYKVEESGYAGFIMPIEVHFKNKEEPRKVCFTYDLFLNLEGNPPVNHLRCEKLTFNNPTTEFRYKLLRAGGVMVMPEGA

[3] = biological target: AF9(YEATS)-HiBiT (Homo sapiens, UniProt P42568); assay: AF9; type: cell-based
AF9(YEATS)-HiBiT, sequence (P42568 1-138 limits assumed): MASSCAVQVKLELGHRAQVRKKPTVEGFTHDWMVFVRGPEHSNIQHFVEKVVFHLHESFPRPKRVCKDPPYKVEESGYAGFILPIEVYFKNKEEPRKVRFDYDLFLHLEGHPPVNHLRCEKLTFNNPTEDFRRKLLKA

[4] = biological target: YSK4 (also known as MAP3K19) (Homo sapiens, UniProt Q56UN5); assay: KdELECT affinity determination of scanMAX hits; type: binding
YSK4 (also known as MAP3K19), sequence (Q56UN5 whole entry, the tested form may be a part): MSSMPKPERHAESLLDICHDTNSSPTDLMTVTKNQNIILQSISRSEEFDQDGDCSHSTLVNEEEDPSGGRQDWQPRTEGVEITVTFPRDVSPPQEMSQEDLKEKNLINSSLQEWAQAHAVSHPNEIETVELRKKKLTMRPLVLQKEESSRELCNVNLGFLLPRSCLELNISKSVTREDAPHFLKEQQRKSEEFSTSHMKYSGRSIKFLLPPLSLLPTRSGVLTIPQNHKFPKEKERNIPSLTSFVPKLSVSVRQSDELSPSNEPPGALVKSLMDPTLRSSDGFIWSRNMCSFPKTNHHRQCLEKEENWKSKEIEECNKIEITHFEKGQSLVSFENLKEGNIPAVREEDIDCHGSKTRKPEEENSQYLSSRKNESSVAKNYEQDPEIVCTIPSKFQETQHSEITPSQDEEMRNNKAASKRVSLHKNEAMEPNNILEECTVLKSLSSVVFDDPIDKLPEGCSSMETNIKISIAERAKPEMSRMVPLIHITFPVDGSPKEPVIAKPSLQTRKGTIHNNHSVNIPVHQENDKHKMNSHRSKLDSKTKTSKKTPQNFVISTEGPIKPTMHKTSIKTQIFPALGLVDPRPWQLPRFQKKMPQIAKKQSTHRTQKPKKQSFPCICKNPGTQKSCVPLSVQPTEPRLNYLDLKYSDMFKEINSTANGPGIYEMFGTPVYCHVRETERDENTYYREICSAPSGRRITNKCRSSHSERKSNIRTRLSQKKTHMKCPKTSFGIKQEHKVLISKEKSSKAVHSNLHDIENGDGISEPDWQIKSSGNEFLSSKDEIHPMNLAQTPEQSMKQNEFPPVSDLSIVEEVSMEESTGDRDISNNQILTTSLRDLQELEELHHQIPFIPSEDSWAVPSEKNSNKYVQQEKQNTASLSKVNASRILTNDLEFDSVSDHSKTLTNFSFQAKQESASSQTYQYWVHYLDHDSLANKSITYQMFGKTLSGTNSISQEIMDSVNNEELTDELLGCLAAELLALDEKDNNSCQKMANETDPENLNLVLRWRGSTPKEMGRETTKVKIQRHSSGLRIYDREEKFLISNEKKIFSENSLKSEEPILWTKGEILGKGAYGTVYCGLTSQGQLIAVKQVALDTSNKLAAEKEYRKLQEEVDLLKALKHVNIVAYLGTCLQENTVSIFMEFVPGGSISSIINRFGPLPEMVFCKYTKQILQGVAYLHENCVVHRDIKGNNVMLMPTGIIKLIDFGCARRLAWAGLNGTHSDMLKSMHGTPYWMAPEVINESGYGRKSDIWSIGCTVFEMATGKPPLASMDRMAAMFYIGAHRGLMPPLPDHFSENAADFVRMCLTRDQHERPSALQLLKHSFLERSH

[5] = biological target: T1, ENL YEATS domain; conditions: 1 μM
[6] = tested on: MOLT-4; assay: Cell proliferation assay; type: cell-based; conditions: MOLT-4 (T-cell ALL), up to 10 μM
[7] = biological target: T2, ENL (Homo sapiens, UniProt Q03111); assay: ENL ChIP-qPCR / ChIP-seq in MV4
T2 sequence (Q03111 1-559): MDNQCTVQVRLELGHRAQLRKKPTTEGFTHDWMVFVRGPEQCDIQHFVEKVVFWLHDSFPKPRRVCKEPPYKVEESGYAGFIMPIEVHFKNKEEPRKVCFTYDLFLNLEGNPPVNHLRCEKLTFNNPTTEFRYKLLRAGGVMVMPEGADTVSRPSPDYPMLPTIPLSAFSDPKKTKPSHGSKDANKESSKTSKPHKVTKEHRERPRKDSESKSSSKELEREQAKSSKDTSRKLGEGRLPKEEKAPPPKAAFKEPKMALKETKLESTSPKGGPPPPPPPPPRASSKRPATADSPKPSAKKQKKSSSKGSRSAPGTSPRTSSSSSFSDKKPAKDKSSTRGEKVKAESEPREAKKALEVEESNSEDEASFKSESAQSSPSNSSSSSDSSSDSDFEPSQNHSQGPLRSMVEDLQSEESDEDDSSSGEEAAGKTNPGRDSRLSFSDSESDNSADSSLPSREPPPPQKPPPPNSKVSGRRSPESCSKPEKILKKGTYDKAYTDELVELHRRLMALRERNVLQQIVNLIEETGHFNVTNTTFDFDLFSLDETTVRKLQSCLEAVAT

[8] = biological target: BRD4 BD1 (Homo sapiens, UniProt O60885); assay: BRD4 BD1 HTRF counter-screen; type: binding
[9] = tested on: 786-O; assay: Cell proliferation assay; type: cell-based; conditions: 786-O (renal cell carcinoma), 10 μM
[10] = tested on: MV4;11 cells; assay: 72 h viability assay; type: cell-based, human; conditions: MV4;11, 72 h
[11] = tested on: OCI/AML-2; assay: Cell proliferation assay; type: cell-based; conditions: OCI/AML-2 (MLL-AF6 AML), ∼2 weeks
[12] = tested on: JURKAT; assay: Cell proliferation assay; type: cell-based; conditions: JURKAT (T-cell ALL), ENL-insensitive
[13] = tested on: 468 kinases; assay: KINOMEscan profiling; conditions: 10 μM, 468 kinases tested
[14] = biological target: YEATS2 YEATS domain (Homo sapiens, UniProt Q9ULM3); assay: Modified histone peptide array, YEATS2 YEATS; conditions: 10 and 50 μM
YEATS2 YEATS domain, sequence (Q9ULM3 200-345 limits assumed): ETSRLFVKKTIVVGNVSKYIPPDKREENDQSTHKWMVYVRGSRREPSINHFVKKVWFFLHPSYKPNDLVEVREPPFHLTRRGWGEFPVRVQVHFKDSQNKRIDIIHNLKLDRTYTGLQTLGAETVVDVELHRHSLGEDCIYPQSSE

[15] = biological target: YEATS4 YEATS domain (Homo sapiens, UniProt O95619); assay: SPR, biotinylated YEATS4 YEATS; type: binding
YEATS4 YEATS domain, sequence (O95619 13-158): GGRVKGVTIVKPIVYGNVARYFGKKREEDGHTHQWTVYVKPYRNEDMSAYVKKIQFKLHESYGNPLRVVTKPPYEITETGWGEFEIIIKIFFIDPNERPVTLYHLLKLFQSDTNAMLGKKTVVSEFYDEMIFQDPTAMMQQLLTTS

[16] = tested on: MV4;11 cells; assay: Cell cycle analysis; type: cell-based, human; conditions: MV4;11, 72 h
[17] = tested on: MV4;11; assay: Cell proliferation assay; type: cell-based, human; conditions: MV4;11 (MLL-AF4 AML), ∼2 weeks
[18] = tested on: HL-60; assay: Cell proliferation assay; type: cell-based; conditions: HL-60 (MLL wild-type AML), ENL-insensitive
[19] = tested on: MV4;11 cells; assay: Quant-seq 3′ mRNA sequencing in MV4; type: cell-based, human; conditions: MV4;11, 4 h
[20] = tested on: 32 bromodomains; assay: BROMOscan profiling; conditions: 10 μM
[21] = tested on: HB11;19; assay: Cell proliferation assay; type: cell-based; conditions: HB11;19 (MLL-ENL fusion), ∼2 weeks
[22] = biological target: AF9 YEATS domain (Homo sapiens, UniProt P42568); assay: AF9 YEATS HTRF; type: binding
AF9 YEATS domain, sequence (P42568 1-138 limits assumed): as the sequence (P42568 1-138 limits assumed) above

[23] = tested on: MOLM-13; assay: Cell proliferation assay; type: cell-based; conditions: MOLM-13 (MLL-AF9 AML), ∼2 weeks
[24] = tested on: MV4;11 cells; assay: qRT-PCR transcript abundance in MV4; type: cell-based, human
[25] = biological target: T2, ENL; assay: ENL degradation by immunoblot; type: cell-based; conditions: for DC50: read-out: ENL DC50, 4 h treatment
[26] = biological target: AF9 (V5) (Homo sapiens, UniProt P42568); assay: AF9-V5 degradation by immunoblot in MOLM-13 cells; type: cell-based; conditions: 4 h treatment
AF9 (V5), sequence (P42568 whole entry): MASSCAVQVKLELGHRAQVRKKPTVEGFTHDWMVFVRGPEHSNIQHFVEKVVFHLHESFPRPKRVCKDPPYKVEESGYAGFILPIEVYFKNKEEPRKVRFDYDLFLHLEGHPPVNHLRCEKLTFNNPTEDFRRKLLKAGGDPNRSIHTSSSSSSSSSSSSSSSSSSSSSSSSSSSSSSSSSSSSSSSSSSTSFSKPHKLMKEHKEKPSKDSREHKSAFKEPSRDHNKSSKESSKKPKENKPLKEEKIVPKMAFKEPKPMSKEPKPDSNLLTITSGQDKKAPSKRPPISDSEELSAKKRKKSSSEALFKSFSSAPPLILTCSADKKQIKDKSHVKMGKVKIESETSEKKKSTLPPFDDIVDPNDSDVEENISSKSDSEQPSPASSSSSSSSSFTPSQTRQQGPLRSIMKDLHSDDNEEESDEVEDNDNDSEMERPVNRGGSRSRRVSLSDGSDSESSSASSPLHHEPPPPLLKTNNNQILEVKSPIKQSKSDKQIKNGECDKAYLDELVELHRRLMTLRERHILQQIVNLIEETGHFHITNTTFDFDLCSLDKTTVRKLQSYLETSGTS

[27] = tested on: MV4;11 cells; assay: TMT-based whole proteome analysis of MV4; type: cell-based, human; conditions: 10 μM
[28] = ENL-H3K27cr HTRF IC50, purified compound

## CC(C)N(C)C(=O)c1ccc2nc(-c3ccccc3)cn2c1 [compound 2, N-Isopropyl-N-methyl-2-phenylimidazo[1,2-a]pyridine-6-carboxamide]
[1]
  EC50: > 20000 nM
[2]
  activity against ENL YEATS: complete ablation of activity
[2]; [28]
  IC50: > 50000 nM

## CC(C)NC(=O)c1ccc2nc(-c3cccc(NS(=O)(=O)NCCc4c[nH]cn4)c3)cn2c1 [compound 7]
[1]
  EC50: 1500 nM
[2]; ENL YEATS HTRF IC50, purified compound
  IC50: 230 nM
[2]; [28]
  IC50: 232 nM
[2]; HTRF IC50 ratio
  improvement in potency compared to the initial screening hit: 30 fold

## O=C(NC1CCC1)c1ccc2nc(-c3cccc(NS(=O)(=O)NCCN4CCCCC4)c3)cn2c1 [SR-0813, N-Cyclobutyl-2-(3-((N-(2-(piperidin-1-yl)ethyl)sulfamoyl)amino)phenyl)imidazo[1,2-a]pyridine-6-carboxamide]
[3]
  EC50: 76 nM
[4]
  lower affinity for YSK4 than for ENL YEATS: over 100 fold
[5]
  ENL recognition of acetyllysine on histone peptide arrays: completely inhibited
[6]
  effect on cell growth: neither the T-cell ALL cell line, MOLT-4, nor the renal cell carcinoma cell line, 786-O, were affected
[7]; MV4;11
  ENL ChIP-seq signal genome-wide: bulk displacement of ENL from chromatin
[7]; MV4;11, 4 h
  ENL ChIP-qPCR enrichment at ENL binding sites (HOXA10 gene body, MYB promoter): dose-dependent eviction of ENL
[8]
  activity against BRD4 BD1 by HTRF: inactive
[9]
  effect on cell growth: neither the T-cell ALL cell line, MOLT-4, nor the renal cell carcinoma cell line, 786-O, were affected
[10]
  effect on viability: minimal effects
[11]
  effect on cell growth: inhibited the growth
[12]
  effect on cell growth: unaffected; also recorded: muted antiproliferative activity
[13]
  number of kinases identified as potential off targets (KINOMEscan, scanMAX): 4
[14]
  YEATS2 recognition of acetyllysine on histone peptide arrays: minimal effects
[15]
  binding to the YEATS4 YEATS domain by SPR: virtually no binding
[16]
  cell cycle distribution: decrease in the number of cells at the G2 stage of the cell cycle
[17]
  effect on cell growth: inhibited the growth
[18]
  effect on cell growth: unaffected; also recorded: muted antiproliferative activity
[19]
  expression of ENL target genes (3′ mRNA-seq): strikingly selective suppression of ENL target genes
  global gene expression (3′ mRNA-seq): did not elicit global changes in gene expression
[20]
  bromodomain off targets (BROMOscan, bromoMAX): not a single bromodomain off target was identified
[21]
  effect on cell growth: inhibited the growth
[22]
  IC50: 311 nM
[23]
  effect on cell growth: inhibited the growth
[24]; MV4;11
  abundance of the ITGAM transcript (CD11b): increased abundance
[24]; MV4;11, from 3 h to at least 3 days, 1 and 10 μM
  transcript abundance of HOXA9, MEIS1 and MYC: downregulated
[24]; MV4;11, most prominent at 10 μM
  transcript abundance of HMGCR and HMGCS1 (SREBP targets, off-target effect): upregulation

## O=C(COc1cccc2c1C(=O)N(C1CCC(=O)NC1=O)C2=O)NCCOCCOCCNS(=O)(=O)Nc1cccc(-c2cn3cc(C(=O)NC4CCC4)ccc3n2)c1 (stereo not drawn) [SR-1114, N-Cyclobutyl-2-(3-((N-(2-(2-(2-(2-((2-(2,6-dioxopiperidin-3-yl)-1,3-dioxoisoindolin-4-yl)oxy)acetamido)ethoxy)ethoxy)ethyl)sulfamoyl)amino)phenyl)imidazo[1,2-a]pyridine-6-carboxamide]
[25]; 10 μM
  time ENL degradation is sustained by a single dose: 24 h
[25]; 10 μM, MV4;11 cells
  time to maximal ENL degradation: ≤ 4 h
[25]; MOLM-13 cells
  DC50: 311 nM
[25]; OCI/AML-2 cells
  DC50: 1650 nM
[26]
  degradation of exogenously expressed AF9-V5: degraded
[27]
  off-target degradation of IKZF1: weak off-target degradation
[27]; 4 and 16 h
  change in ENL abundance across the proteome: strongest change in abundance across the proteome
[27]; 16 h
  abundance of ENL target genes (HOXA10, MYC, MYB, FLT3, ZEB2, SATB1): preferential suppression of multiple ENL target genes
  abundance of myeloid differentiation marker CD11b: increased the abundance
